{
  "source": "BigSolDB 2.1",
  "data": [
    {"compound": "CC(=O)O[C@]1(C(C)=O)CC[C@H]2[C@@H]3C=C(Cl)C4=CC(=O)[C@@H]5C[C@@H]5[C@]4(C)[C@H]3CC[C@@]21C", "values": [
      {"measurement": "solubility (mole fraction)", "setting": "in MTBE, 273.15 K", "value": 0.000675},
      {"measurement": "solubility (mole fraction)", "setting": "in MTBE, 278.15 K", "value": 0.000675},
      {"measurement": "solubility (mole fraction)", "setting": "in MTBE, 283.15 K", "value": 0.000676},
      {"measurement": "solubility (mole fraction)", "setting": "in MTBE, 288.15 K", "value": 0.000676},
      {"measurement": "solubility (mole fraction)", "setting": "in MTBE, 293.15 K", "value": 0.000677},
      {"measurement": "solubility (mole fraction)", "setting": "in MTBE, 298.15 K", "value": 0.000677},
      {"measurement": "solubility (mole fraction)", "setting": "in MTBE, 303.15 K", "value": 0.000678},
      {"measurement": "solubility (mole fraction)", "setting": "in MTBE, 308.15 K", "value": 0.000678},
      {"measurement": "solubility (mole fraction)", "setting": "in MTBE, 313.15 K", "value": 0.000679},
      {"measurement": "solubility (mole fraction)", "setting": "in MTBE, 318.15 K", "value": 0.000679},
      {"measurement": "solubility (mole fraction)", "setting": "in methanol, 273.15 K", "value": 0.000229},
      {"measurement": "solubility (mole fraction)", "setting": "in methanol, 278.15 K", "value": 0.000229},
      {"measurement": "solubility (mole fraction)", "setting": "in methanol, 283.15 K", "value": 0.000229},
      {"measurement": "solubility (mole fraction)", "setting": "in methanol, 288.15 K", "value": 0.00023},
      {"measurement": "solubility (mole fraction)", "setting": "in methanol, 293.15 K", "value": 0.00023},
      {"measurement": "solubility (mole fraction)", "setting": "in methanol, 298.15 K", "value": 0.00023},
      {"measurement": "solubility (mole fraction)", "setting": "in methanol, 303.15 K", "value": 0.00023},
      {"measurement": "solubility (mole fraction)", "setting": "in methanol, 308.15 K", "value": 0.00023},
      {"measurement": "solubility (mole fraction)", "setting": "in methanol, 313.15 K", "value": 0.00023},
      {"measurement": "solubility (mole fraction)", "setting": "in methanol, 318.15 K", "value": 0.000231},
      {"measurement": "solubility (mole fraction)", "setting": "in water, 273.15 K", "value": "6.57e-07"},
      {"measurement": "solubility (mole fraction)", "setting": "in water, 278.15 K", "value": "8.66e-07"},
      {"measurement": "solubility (mole fraction)", "setting": "in water, 283.15 K", "value": "1.16e-06"},
      {"measurement": "solubility (mole fraction)", "setting": "in water, 288.15 K", "value": "1.56e-06"},
      {"measurement": "solubility (mole fraction)", "setting": "in water, 293.15 K", "value": "2.09e-06"},
      {"measurement": "solubility (mole fraction)", "setting": "in water, 298.15 K", "value": "2.79e-06"},
      {"measurement": "solubility (mole fraction)", "setting": "in water, 303.15 K", "value": "3.67e-06"},
      {"measurement": "solubility (mole fraction)", "setting": "in water, 308.15 K", "value": "4.88e-06"},
      {"measurement": "solubility (mole fraction)", "setting": "in water, 313.15 K", "value": "6.36e-06"},
      {"measurement": "solubility (mole fraction)", "setting": "in water, 318.15 K", "value": "8.21e-06"}
    ]}
  ]
}
